US6242437A, “Cephem derivatives” (Meiji Seika Kaisha, Ltd., priority 1996, dated 2001)
≈ marks a conversion by molar mass, not a printed value. Where a name gives a salt, the structure may show the parent alone.

Legend:
Assay in all cases: Minimum inhibitory concentration, two-fold dilution method
Type in all cases: cell-based
[1] = tested on: K. pneumoniae PCI602; conditions: Klebsiella pneumoniae, 10^6 CFU/ml, 35° C., 18 to 20 hr
Description: (§1) The antibacterial activity of the compounds according to the present invention was assayed in terms of the minimum inhibitory concentration, for various bacteria, measured by the conventional two-fold dilution method described in, for example, CHEMOTHERAPY, Vol. 29, No. 1, 76-79 (1981). The measurement was carried out in the following manner: 10^6 CFU/ml of a bacterium to be tested was inoculated on a Medium N for disc susceptibility test (manufactured by Nissui Pharmaceutical Co., Ltd.) and cultivated at 35° C. for 18 to 20 hr.
(§2) The test compounds were the compounds prepared in Examples 4 and 5, Cefozopran (CZOP, control 1), Cefpirome (CPR, control 2), the compound prepared in Example 66 (control 3) described in WO 95/07912.

[2] = tested on: P. aeruginosa GN10362; conditions: Pseudomonas aeruginosa, 10^6 CFU/ml, 35° C., 18 to 20 hr
Description: as §1, §2

[3] = tested on: S. aureus 126; conditions: Staphylococcus aureus; S. aureus 126, methicilline-resistant (MRSA); 10^6 CFU/ml, 35° C., 18 to 20 hr
Description: as §1, §2

[4] = tested on: S. epidermidis ATCC14990; conditions: Staphylococcus epidermidis, 10^6 CFU/ml, 35° C., 18 to 20 hr
Description: as §1, §2

[5] = tested on: S. pneumoniae IP692; conditions: Streptococcus pneumoniae, 10^6 CFU/ml, 35° C., 18 to 20 hr
Description: as §1, §2

[6] = tested on: E. coli NIHJ JC-2; conditions: Escherichia coli, NIHJJC2, 10^6 CFU/ml, 35° C., 18 to 20 hr
Description: as §1, §2

[7] = tested on: S. aureus 209P JC-1; conditions: Staphylococcus aureus, 10^6 CFU/ml, 35° C., 18 to 20 hr
Description: as §1, §2

[8] = tested on: C. freundii GN346/16; conditions: Citrobacter freundii, 10^6 CFU/ml, 35° C., 18 to 20 hr
Description: as §1, §2

[9] = tested on: E. cloacae G-0008; conditions: Enterobacter cloacae, G0008, 10^6 CFU/ml, 35° C., 18 to 20 hr
Description: as §1, §2

[10] = tested on: P. aeruginosa PA01; conditions: Pseudomonas aeruginosa; P. aeruginosa PA01, Imipenem- and Aztreonam-resistant; 10^6 CFU/ml, 35° C., 18 to 20 hr
Description: as §1, §2

[11] = tested on: S. pneumoniae PRC9; conditions: Streptococcus pneumoniae; S. pneumoniae PRC9, penicillin-resistant (PRSP); 10^6 CFU/ml, 35° C., 18 to 20 hr
Description: as §1, §2

[12] = tested on: P. aeruginosa E-2; conditions: Pseudomonas aeruginosa, E2, 10^6 CFU/ml, 35° C., 18 to 20 hr
Description: as §1, §2

[13] = tested on: S. marcescens No. 1; conditions: Serratia marcescens, 10^6 CFU/ml, 35° C., 18 to 20 hr
Description: as §1, §2

[14] = tested on: M. morganii 1510/S-1; conditions: Morganella morganii, 1510/S1, 10^6 CFU/ml, 35° C., 18 to 20 hr
Description: as §1, §2

[15] = tested on: S. pneumoniae JPR9; conditions: Streptococcus pneumoniae; S. pneumoniae JPR9, penicillin-resistant (PRSP); 10^6 CFU/ml, 35° C., 18 to 20 hr
Description: as §1, §2

[16] = tested on: S. pneumoniae JPR20; conditions: Streptococcus pneumoniae; S. pneumoniae JPR20, penicillin-resistant (PRSP); 10^6 CFU/ml, 35° C., 18 to 20 hr
Description: as §1, §2

| MIC [1] [µg/mL] | MIC [2] [µg/mL] | MIC [3] [µg/mL] | MIC [4] [µg/mL] | MIC [5] [µg/mL] | MIC [6] [µg/mL] | MIC [7] [µg/mL] | MIC [8] [µg/mL] | MIC [9] [µg/mL] | MIC [10] [µg/mL] | MIC [11] [µg/mL] | MIC [12] [µg/mL] | MIC [13] [µg/mL] | MIC [14] [µg/mL] | MIC [15] [µg/mL] | MIC [16] [µg/mL] | Compound |
| --- | --- | --- | --- | --- | --- | --- | --- | --- | --- | --- | --- | --- | --- | --- | --- | --- |
| 0.1 (≈ 0.194 µM) | 0.78 (≈ 1.51 µM) | 50 (≈ 97 µM) | 0.78 (≈ 1.51 µM) | 0.05 (≈ 0.097 µM) | 0.05 (≈ 0.097 µM) | 0.39 (≈ 0.756 µM) | 0.05 (≈ 0.097 µM) | 0.1 (≈ 0.194 µM) | 12.5 (≈ 24.2 µM) | 1.56 (≈ 3.03 µM) | 0.78 (≈ 1.51 µM) | 0.1 (≈ 0.194 µM) | 0.1 (≈ 0.194 µM) |  |  | CO/N=C(\C(=O)N[C@@H]1C(=O)N2C(C(=O)[O-])=C(C[n+]3ccn4ncccc43)CS[C@H]12)c1nsc(N)n1 [Control 1, Cefozopran, reference compound] |
| 0.05 (≈ 0.0972 µM) | 3.13 (≈ 6.08 µM) | 50 (≈ 97.2 µM) | 0.39 (≈ 0.758 µM) | ≤ 0.025 | 0.05 (≈ 0.0972 µM) | 0.2 (≈ 0.389 µM) | 0.05 (≈ 0.0972 µM) | 0.05 (≈ 0.0972 µM) | 25 (≈ 48.6 µM) | 0.78 (≈ 1.52 µM) | 3.13 (≈ 6.08 µM) | ≤ 0.025 | ≤ 0.025 |  |  | CO/N=C(\C(=O)N[C@@H]1C(=O)N2C(C(=O)[O-])=C(C[n+]3cccc4c3CCC4)CS[C@H]12)c1csc(N)n1 [Control 2, Cefpirome, reference compound] |
| ≤ 0.025 | 0.39 | 6.25 | 0.78 | ≤ 0.025 | ≤ 0.025 | 0.78 | ≤ 0.025 | 0.05 | 3.13 | 0.39 | 0.78 | 0.05 | ≤ 0.025 | 0.2 | 0.05 | Nc1nc(/C(=N/OCF)C(=O)N[C@@H]2C(=O)N3C(C(=O)[O-])=C(C[n+]4cc5sccn5c4CNS(N)(=O)=O)CS[C@H]23)ns1 [Ex. 4, (6R,7R)-7-[(Z)-2-(5-amino-1,2,4-thiadiazol-3-yl)-2-(fluoromethoxyimino)acetamido]-3-[5-sulfamidomethylimidazo[5,1-b]thiazolium-6-yl]methyl-3-cephem-4-carboxylate (inner salt)] |
| 0.05 | 0.78 | 6.25 | 0.78 | ≤ 0.025 | 0.05 | 0.78 | 0.05 | 0.1 | 3.13 | 0.39 | 0.78 | 0.1 | 0.05 |  |  | CO/N=C(\C(=O)N[C@@H]1C(=O)N2C(C(=O)[O-])=C(C[n+]3cc4sccn4c3CNS(N)(=O)=O)CS[C@H]12)c1nsc(N)n1 [Ex. 5, (6R,7R)-7-[(Z)-2-(5-Amino-1,2,4-thiadiazol-3-yl)-2-(methoxyimino)acetamido]-3-[5-sulfamidomethylimidazo[5,1-b]thiazolium-6-yl]methyl-3-cephem-4-carboxylate (inner salt)] |
